Read-outs that look alike come from different tables or passages of the source.
What was measured:
mu-opioid receptor [1] = molecular target: T1, mu-opioid receptor (Rattus norvegicus, UniProt P33535); assay type: binding
T1 construct: expressed in transfected cells; host or cells: HEK293 cells, transient transfection

mu-opioid receptor [2] = molecular target: T1, mu-opioid receptor; assay type: cell-based

T1 sequence (P33535 whole entry): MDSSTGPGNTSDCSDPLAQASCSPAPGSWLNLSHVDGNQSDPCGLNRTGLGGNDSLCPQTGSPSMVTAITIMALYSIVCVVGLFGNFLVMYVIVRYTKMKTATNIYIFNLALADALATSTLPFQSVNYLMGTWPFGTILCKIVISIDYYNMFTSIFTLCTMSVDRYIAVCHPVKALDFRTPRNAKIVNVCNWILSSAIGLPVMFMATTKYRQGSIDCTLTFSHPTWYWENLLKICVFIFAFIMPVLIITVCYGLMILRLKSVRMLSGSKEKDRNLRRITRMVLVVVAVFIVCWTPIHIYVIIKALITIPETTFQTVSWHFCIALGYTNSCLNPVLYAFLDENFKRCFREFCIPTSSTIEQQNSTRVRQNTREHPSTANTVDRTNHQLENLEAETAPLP

SMILES: C[C@@H](NC(=O)[C@@H](N)Cc1ccc(O)cc1)C(=O)NCC(=O)N(C)[C@@H](Cc1ccccc1)C(=O)NCCO [DAMGO, (D-Ala^2, N-MePhe^4, Gly^5-ol)-enkephalin]
- Affinity and number of binding sites, pH dependence (mu-opioid receptor [1]): slightly (nonsignificantly) lower at pH 5.5 compared to pH 7.5
- ^3H-DAMGO Bmax (mu-opioid receptor [1]; pH 5.5): 14.04 fmol/mg
- ^3H-DAMGO Bmax (mu-opioid receptor [1]; pH 6.5): 15.50 fmol/mg
- ^3H-DAMGO Bmax (mu-opioid receptor [1]; pH 7.5): 23.95 fmol/mg
- cAMP (% baseline) (mu-opioid receptor [2]; pH 5): 43 ± 6 % baseline
- cAMP (% baseline) (mu-opioid receptor [2]; pH 6.5): 68 ± 9 % baseline
- Suppression of FSK/IBMX-stimulated cAMP, pH dependence (mu-opioid receptor [2]; pH 7.5): markedly stronger at pH 5.0 than at pH 7.5
- cAMP (% baseline) (mu-opioid receptor [2]; pH 7.5): 82 ± 7 % baseline
